No end group written: not given here.
Assays:
HSC-4 cells [1] = assay: FACS of fixed HSC-4 cells with and without saponin permeabilization; type: cell-based, human; settings: fixed (4% PFA) HSC-4 cells, 10 μM FITC-labelled peptide, with or without 0.3% saponin, buffer with 1% FBS, 1 h at room temperature; FACS fluorescence
Procedure: (§1) TM2-FITC was used for FACS analyses with and without permeabilization of fixed HSC-4 cells using saponin. […] To check whether it can be used for live sorting, live HSC-4 cells were stained with the peptide and analyzed by FACS. […] The live uptake of TM2-FITC by HSC-4 monolayer cells was visualized under microscope immediately after washing off the staining solution (Fig. 2c).
(§2) FACS analysis was performed as reported previously. Monolayer cells were trypsinized and fixed using 4% PFA, and peptide labeled with FITC (10 μM) was added to the cells in presence or absence of 0.3% saponin in a buffer containing 1%FBS, and incubated for one hour at room temperature. For live sorting, the cells were resuspended in 75 μl of PBS containing the peptide for one hour. Cells were diluted with 200 μl of PBS and sorted immediately using FACS Aria II.

[2] = system: HSC-4 cells and Hira-/- ES cells; assay: FACS of live HSC-4 / Hira-/- ES cell mixture dual stained with TM2-FITC and CD44-PE; type: cell-based
Source text: (§3) Since TM2-FITC binds to its target in live cells without any permeabilizing agents, we sought the possibility of its use in live sorting. We tried to separate HIRA expressing cells from HIRA deficient cells using FACS. We took oral cancer cell line HSC-4, which expresses HIRA, and mixed with Hira^−/− ES cells in 2.5:1 ratio. […] These cells were sorted out as positive and negative populations with gates P2 and P3 and were allowed to grow for 5 days in 8-well chamber slide. The DIC images confirm that the positive population was HSC-4 keratinocytes and the negative population was ES cells (Fig. 3b). Again wild type ES cells and Hira^−/− ES cells were mixed in 1:1 ratio and sorted as mentioned before. […] These cells grown in slide chambers were stained with antibodies for HIRA and an epithelial marker, CD44. […] The cross contamination in P3 population for the mixture of null and wild type ES cells was <4%. Since 5 days of growth in ES culture medium might give a selection advantage for ES cells over the contaminating keratinocytes, another FACS was performed to check the false positivity and negativity. HSC-4 cells and Hira^−/− ES cells were stained alone or in mixture with the TM2-FITC and CD44-PE and analyzed by FACS. […] The false positivity that we observed in P4 population could be overcome by a stringent gating as we have done in Fig 3. To further ascertain the false positivity in sorting based on TM2-FITC, the mixture of two cell types were separated for HIRA a positivity as shown in Fig. 4d. The positive population was analyzed for possible cross contamination for ES cells as shown by CD44 negativity. […] Comparing the cost of peptide synthesis with antibody development, this method is more cost effective than conventional antibodies. In future, the strategy can be improved by modifications that increases the retention time of the peptide, to ensure more purity. We argue that this approach will have immense use in cell biology, developmental biology and clinical applications.
Figure 4 Specificity of TM2-FITC live sorting. (a) The FACS profiles of live HSC-4 cells and ES cells alone or in a mixture stained with TM2-FITC and CD44-PE. The two populations in P2 and P4 gate were selected for CD44 positivity. (b) Sorted cells were further analyzed for HIRA positivity (c) The dual stained cells were separated for both FITC and PE. The positivity of different populations is marked. (d) The mixture of two cell types were separated for HIRA positivity and the P2 population was further analyzed for CD44 positivity.
(§4) FACS analysis was performed as reported previously. […]

[3] = system: HSC-4 cells and Hira-/- ES cells; assay: Live sorting of a mixture of HSC-4 cells and Hira-/- ES cells; type: cell-based
Source text: Since TM2-FITC binds to its target in live cells without any permeabilizing agents, we sought the possibility of its use in live sorting. We tried to separate HIRA expressing cells from HIRA deficient cells using FACS. We took oral cancer cell line HSC-4, which expresses HIRA, and mixed with Hira^−/− ES cells in 2.5:1 ratio. […] These cells were sorted out as positive and negative populations with gates P2 and P3 and were allowed to grow for 5 days in 8-well chamber slide. The DIC images confirm that the positive population was HSC-4 keratinocytes and the negative population was ES cells (Fig. 3b). Again wild type ES cells and Hira^−/− ES cells were mixed in 1:1 ratio and sorted as mentioned before. […] These cells grown in slide chambers were stained with antibodies for HIRA and an epithelial marker, CD44. […] The cross contamination in P3 population for the mixture of null and wild type ES cells was <4%. Since 5 days of growth in ES culture medium might give a selection advantage for ES cells over the contaminating keratinocytes, another FACS was performed to check the false positivity and negativity. HSC-4 cells and Hira^−/− ES cells were stained alone or in mixture with the TM2-FITC and CD44-PE and analyzed by FACS. […] The positive population was analyzed for possible cross contamination for ES cells as shown by CD44 negativity. […]

HIRA [4] = molecular target: T1, HIRA (Mus musculus, UniProt Q61666); assay: Immunofluorescence of fixed and permeabilized wild type and Hira-/- W9.5 ES cells; type: cell-based; settings: fixed and permeabilized mouse W9.5 wild type versus Hira-/- ES cells; confocal microscopy
T1 construct: endogenous in cells; host or cells: mouse W9.5 ES cells (wild type)
T1 sequence (Q61666 whole entry): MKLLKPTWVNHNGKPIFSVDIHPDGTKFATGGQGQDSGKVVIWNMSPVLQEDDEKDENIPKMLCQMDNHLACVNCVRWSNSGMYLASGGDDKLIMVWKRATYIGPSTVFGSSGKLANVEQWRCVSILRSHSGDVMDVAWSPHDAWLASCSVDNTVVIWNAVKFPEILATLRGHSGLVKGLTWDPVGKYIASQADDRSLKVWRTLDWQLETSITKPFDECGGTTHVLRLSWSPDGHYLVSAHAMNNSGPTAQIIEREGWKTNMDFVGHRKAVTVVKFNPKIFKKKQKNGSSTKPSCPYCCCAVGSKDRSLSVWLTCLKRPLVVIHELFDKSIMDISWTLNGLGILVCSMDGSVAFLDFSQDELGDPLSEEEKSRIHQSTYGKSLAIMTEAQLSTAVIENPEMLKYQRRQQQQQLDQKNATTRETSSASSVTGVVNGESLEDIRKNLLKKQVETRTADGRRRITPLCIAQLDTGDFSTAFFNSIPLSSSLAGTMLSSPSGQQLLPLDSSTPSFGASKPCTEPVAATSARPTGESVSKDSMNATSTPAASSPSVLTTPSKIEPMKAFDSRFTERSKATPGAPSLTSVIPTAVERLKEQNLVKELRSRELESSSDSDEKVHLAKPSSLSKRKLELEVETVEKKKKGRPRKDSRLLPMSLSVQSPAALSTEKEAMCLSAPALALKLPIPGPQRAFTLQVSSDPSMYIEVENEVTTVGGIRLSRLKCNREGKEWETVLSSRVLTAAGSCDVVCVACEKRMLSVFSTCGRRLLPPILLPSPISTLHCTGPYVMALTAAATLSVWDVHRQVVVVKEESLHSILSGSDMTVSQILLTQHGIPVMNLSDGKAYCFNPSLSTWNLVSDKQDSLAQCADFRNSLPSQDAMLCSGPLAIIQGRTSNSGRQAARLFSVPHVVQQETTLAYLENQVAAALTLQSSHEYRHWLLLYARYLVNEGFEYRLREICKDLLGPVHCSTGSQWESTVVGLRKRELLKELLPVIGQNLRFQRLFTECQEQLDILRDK
Source text: (§5) One of the problems that could emerge in a peptide-based detection is its specificity. To confirm whether the peptide detects correct molecule, we performed a western blot using biotin-tagged peptide, a novel approach for showing specificity. TM2 was tagged with biotin and purified by size exclusion chromatography, and was used instead of primary antibody in western blot. The blot was developed with streptavidin-HRP and ECL to get a single band at 110 kDa, as observed in antibody-based detection (Fig. 1b). The peptide was tagged to FITC and was used for immunofluorescence in comparison with HIRA antibody. The staining pattern in fixed and permeabilized oral cancer cell line HSC-4 was similar in both TM2-FITC and HIRA antibody (Fig. 1c), confirming the specificity. To rule out nonspecific binding of peptide we selected HIRA-knock out cells. So, we analyzed the specificity using mouse W9.5 (wild type) and Hira^−/− W9.5 ES cells, reported earlier. Since we designed peptides using human sequence, and the cell line is of mouse origin we compared the sequence similarity of binding region of both HIRA and H2B across the two species. […] So we anticipated that the peptide will recognize mouse HIRA as well.
(§6) Monolayer cells seeded in micro slide chamber were fixed using 4% paraformadehyde (PFA), permeabilized with 0.3% Triton X-100/PBS (PBST) and blocked with 2% serum as described previously. […]

[5] = system: wild type and Hira-/- ES cells; assay: Live uptake by ES cells under the confocal microscope; type: cell-based, mouse; settings: live wild type and Hira-/- ES cells grown in confocal dishes, TM2-FITC; fluorescence microscopy
Source text: as §1
(a) The FACS profile of fixed HSC-4 cells stained with TM2-FITC. (b) Live cells were stained with the TM2-FITC as described under methods and analyzed in FACS Aria II. (c) HSC-4 cells were grown in confocal dishes and incubated with TM2-FITC diluted in PBS for 1 h. Prior to imaging the cells were briefly washed and imaged (d) ES cells were grown in confocal dishes and stained using TM2-FITC. Hoechst 33342 dye was used to visualize the nucleus. The scale bar represents 10 μm.

HIRA [6] = molecular target: T2, HIRA (Homo sapiens, UniProt P54198); assay: Immunofluorescence of fixed and permeabilized HSC-4 cells; type: cell-based; settings: fixed (4% PFA) and permeabilized (0.3% Triton X-100) HSC-4 cells; overnight at 4 °C; confocal microscopy
T2 construct: We took oral cancer cell line HSC-4, which expresses HIRA; endogenous in cells; host or cells: HSC-4
T2 sequence (P54198 whole entry): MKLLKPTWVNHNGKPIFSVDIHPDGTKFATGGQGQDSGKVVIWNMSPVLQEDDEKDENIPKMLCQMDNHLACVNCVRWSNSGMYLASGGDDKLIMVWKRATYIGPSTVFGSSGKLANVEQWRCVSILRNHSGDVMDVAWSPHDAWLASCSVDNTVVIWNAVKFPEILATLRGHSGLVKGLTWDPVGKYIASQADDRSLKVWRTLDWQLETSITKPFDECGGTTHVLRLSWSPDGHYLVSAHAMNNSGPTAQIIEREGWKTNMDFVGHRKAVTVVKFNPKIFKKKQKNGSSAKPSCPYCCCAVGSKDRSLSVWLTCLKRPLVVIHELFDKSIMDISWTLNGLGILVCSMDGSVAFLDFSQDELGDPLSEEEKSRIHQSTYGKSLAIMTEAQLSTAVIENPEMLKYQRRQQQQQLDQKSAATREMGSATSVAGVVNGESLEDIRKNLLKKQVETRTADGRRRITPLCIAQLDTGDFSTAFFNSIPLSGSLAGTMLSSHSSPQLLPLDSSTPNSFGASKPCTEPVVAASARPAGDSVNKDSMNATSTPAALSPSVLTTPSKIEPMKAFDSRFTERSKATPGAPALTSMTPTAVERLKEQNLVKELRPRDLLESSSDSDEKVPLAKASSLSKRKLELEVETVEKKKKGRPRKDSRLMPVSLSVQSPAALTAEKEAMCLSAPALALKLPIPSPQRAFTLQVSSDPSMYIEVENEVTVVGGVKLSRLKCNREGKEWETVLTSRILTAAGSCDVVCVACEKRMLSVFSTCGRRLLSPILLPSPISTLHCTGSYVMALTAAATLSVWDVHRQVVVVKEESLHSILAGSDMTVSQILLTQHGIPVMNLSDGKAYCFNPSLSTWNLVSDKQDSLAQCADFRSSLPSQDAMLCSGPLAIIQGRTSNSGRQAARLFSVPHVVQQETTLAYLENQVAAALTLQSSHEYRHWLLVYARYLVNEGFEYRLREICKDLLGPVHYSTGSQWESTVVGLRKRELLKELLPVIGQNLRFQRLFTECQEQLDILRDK
Source text: as §5, §6

HSC-4 cells [7] = assay: FACS of live HSC-4 cells stained with the peptide; type: cell-based, human
Procedure: as §1, §2

[8] = system: wild type ES cells and Hira-/- ES cells; assay: Live sorting of a mixture of wild type and Hira-/- ES cells; type: cell-based, mouse
Source text: as §3, §4

[9] = mixture of live HSC-4 and Hira-/- ES cells, TM2-FITC and CD44-PE, Fig. 4b

Row | Substance | cell permeability / internalization (HSC-4 cells [1]) | false positive ratio in dual staining ([2]; dual stained cells separated for both FITC and PE, Fig. 4c) [%] | HIRA positivity of CD44+ population (P2) [2, 9] [%] | false HIRA positivity of Hira-/- ES cells (CD44 negative, P4) [2, 9] [%] | false positive ratio (CD44 negative cells in the HIRA positive population) ([2]; mixture separated for HIRA positivity, P2 population analysed for CD44, Fig. 4d) [%] | HIRA positive cells observed (gate P2) ([3]; live HSC-4 and Hira-/- ES cells mixed 2.5:1 (2.5x10^5 / 1x10^5), expected 71.4%, FACS) [%] | contamination of sorted P3 (negative) population by CD44+HIRA+ cells ([3]; sorted cells grown 5 days in 8-well chamber slide, stained with HIRA and CD44 antibodies) [%] | staining of HIRA-/- ES cells (specificity) (HIRA [4]) | live uptake pattern in ES cells [5] | staining pattern compared with HIRA antibody (HIRA [6]) | signal after washing with peptide free solution (HSC-4 cells [7]; live HSC-4 cells stained with the peptide, FACS) | cells positive for HIRA (HSC-4 cells [7]; live HSC-4 cells, no permeabilization, peptide in 75 μl PBS for 1 h, diluted with 200 μl PBS, FACS Aria II) [%] | viability of sorted ES cells ([8]; cells sorted live with TM2-FITC, grown 5 days in 8-well chamber slide, DIC images) | observed ratio of positivity (gate P2) ([8]; live wild type ES and Hira-/- ES cells mixed 1:1 (1x10^5 / 1x10^5), expected 50%, FACS) [%] | cross contamination in sorted P3 (negative) population ([8]; mixture of null and wild type ES cells, sorted cells grown 5 days, stained with HIRA antibody) [%]
1 | PKKGSKKAVTKAQKKDGA-NH2 [TM2] | cell permeable |  |  |  |  |  |  |  |  |  |  |  |  |  | 
2 | TM2-FITC: TM2 peptide tagged to FITC, used for immunofluorescence, FACS and live sorting (PKKGSKKAVTKAQKKDGA-NH2; also: FITC, site not given here) | internalized without permeabilization | 0.6 | 82 | 2.7 | 0.9 | 65.7 | < 1 | absence of staining | limited to the wild type ES cells | similar | loss of the signal | 85 | viable and formed colonies in 5 days | 49.6 | < 4

Reference: publication PMC4657044, “Live detection and purification of cells based on the expression of a histone chaperone, HIRA, using a binding peptide” (Scientific Reports, 2015)
